Results as given in the CheMixHub viscosity set.
± gives the uncertainty stated by the source.

Assay: xn = mol fraction of the nth substance listed

BrCCBr + Cc1ccc(C)cc1
101.33 kPa
Conditions	viscosity [mPa·s]
298.15 K, x1 = 0.1435	0.6686 ± 0.0084
298.15 K, x1 = 0.2783	0.7322 ± 0.009
298.15 K, x1 = 0.391	0.7899 ± 0.0096
298.15 K, x1 = 0.4898	0.887 ± 0.011
298.15 K, x1 = 0.5921	1.001 ± 0.012
298.15 K, x1 = 0.6809	1.082 ± 0.013
298.15 K, x1 = 0.7685	1.169 ± 0.014
298.15 K, x1 = 0.8555	1.309 ± 0.015
298.15 K, x1 = 0.9211	1.459 ± 0.017
308.15 K, x1 = 0.1371	0.5822 ± 0.0073
308.15 K, x1 = 0.2566	0.6257 ± 0.0078
308.15 K, x1 = 0.3821	0.6992 ± 0.0086
308.15 K, x1 = 0.4845	0.7526 ± 0.0091
308.15 K, x1 = 0.5874	0.8292 ± 0.01
308.15 K, x1 = 0.6798	0.9216 ± 0.011
308.15 K, x1 = 0.7647	1.018 ± 0.012
308.15 K, x1 = 0.8499	1.154 ± 0.013
308.15 K, x1 = 0.9258	1.273 ± 0.015

C1=C[C@H]2[C@@H](C1)[C@H]1C=C[C@@H]2C1 + Cc1ccc(C)cc1
viscosity [mPa·s], 101.2 kPa
Conditions	x1 = 0.1024	x1 = 0.1971	x1 = 0.3006	x1 = 0.3993	x1 = 0.4999	x1 = 0.6007	x1 = 0.7014	x1 = 0.8001	x1 = 0.8993
293.15 K	0.7661 ± 0.042	0.8509 ± 0.046	0.9724 ± 0.055	1.127 ± 0.069	1.347 ± 0.087	1.626 ± 0.11	2.014 ± 0.15	2.625 ± 0.22	3.5 ± 0.28
298.15 K	0.7144 ± 0.04	0.7986 ± 0.043	0.9075 ± 0.051	1.04 ± 0.062	1.229 ± 0.078	1.483 ± 0.1	1.85 ± 0.14	2.402 ± 0.19	3.126 ± 0.24
303.15 K	0.6724 ± 0.037	0.7508 ± 0.04	0.8496 ± 0.047	0.9666 ± 0.057	1.141 ± 0.072	1.367 ± 0.093	1.693 ± 0.13	2.174 ± 0.17	2.81 ± 0.21
308.15 K	0.6225 ± 0.035	0.7021 ± 0.038	0.7934 ± 0.044	0.9051 ± 0.053	1.066 ± 0.067	1.279 ± 0.086	1.58 ± 0.12	1.995 ± 0.15	2.529 ± 0.19
313.15 K	0.5997 ± 0.033	0.6653 ± 0.035	0.7493 ± 0.041	0.8554 ± 0.05	1.001 ± 0.062	1.19 ± 0.079	1.457 ± 0.1	1.826 ± 0.13	2.271 ± 0.16
318.15 K	0.5879 ± 0.033	0.6586 ± 0.035	0.7357 ± 0.04	0.8296 ± 0.048	0.9662 ± 0.058	1.138 ± 0.073	1.371 ± 0.094	1.689 ± 0.12	2.104 ± 0.15

CC(C)[N+](=O)[O-] + Cc1ccc(C)cc1
293.15 K, 101.33 kPa
Conditions	viscosity [mPa·s]
x1 = 0.1052	0.64 ± 0.006
x1 = 0.2079	0.636 ± 0.006
x1 = 0.2945	0.638 ± 0.006
x1 = 0.3973	0.644 ± 0.007
x1 = 0.4976	0.651 ± 0.007
x1 = 0.6039	0.664 ± 0.007
x1 = 0.7089	0.678 ± 0.007
x1 = 0.8008	0.699 ± 0.007
x1 = 0.8925	0.727 ± 0.007

BrCCBr + Cc1cccc(C)c1
101.33 kPa
Conditions	viscosity [mPa·s]
298.15 K, x1 = 0.1391	0.6538 ± 0.0082
298.15 K, x1 = 0.269	0.7069 ± 0.0087
298.15 K, x1 = 0.3835	0.8095 ± 0.0099
298.15 K, x1 = 0.4852	0.8843 ± 0.011
298.15 K, x1 = 0.5776	1.002 ± 0.012
298.15 K, x1 = 0.6789	1.064 ± 0.013
298.15 K, x1 = 0.7684	1.191 ± 0.014
298.15 K, x1 = 0.8458	1.307 ± 0.015
298.15 K, x1 = 0.9257	1.447 ± 0.017
308.15 K, x1 = 0.1463	0.587 ± 0.0074
308.15 K, x1 = 0.2621	0.6362 ± 0.0079
308.15 K, x1 = 0.3771	0.7044 ± 0.0086
308.15 K, x1 = 0.4834	0.764 ± 0.0093
308.15 K, x1 = 0.5853	0.8526 ± 0.01
308.15 K, x1 = 0.6796	0.9345 ± 0.011
308.15 K, x1 = 0.7697	1.018 ± 0.012
308.15 K, x1 = 0.8516	1.143 ± 0.013
308.15 K, x1 = 0.9254	1.259 ± 0.015

Brc1ccccc1 + Cc1cccc(C)c1
101 kPa
Conditions	viscosity [mPa·s]
293.15 K, x1 = 0.112	0.626 ± 0.011
293.15 K, x1 = 0.2214	0.677 ± 0.012
293.15 K, x1 = 0.3339	0.723 ± 0.013
293.15 K, x1 = 0.5406	0.818 ± 0.014
293.15 K, x1 = 0.6754	0.89 ± 0.015
293.15 K, x1 = 0.7672	0.936 ± 0.016
293.15 K, x1 = 0.848	0.978 ± 0.017
293.15 K, x1 = 0.9095	1.01 ± 0.017
298.15 K, x1 = 0.11	0.592 ± 0.011
298.15 K, x1 = 0.2179	0.635 ± 0.011
298.15 K, x1 = 0.3324	0.685 ± 0.012
298.15 K, x1 = 0.4083	0.715 ± 0.013
298.15 K, x1 = 0.5319	0.768 ± 0.013
298.15 K, x1 = 0.6412	0.819 ± 0.014
298.15 K, x1 = 0.7163	0.853 ± 0.015
298.15 K, x1 = 0.866	0.927 ± 0.016
303.15 K, x1 = 0.1106	0.555 ± 0.01
303.15 K, x1 = 0.2212	0.592 ± 0.011
303.15 K, x1 = 0.3352	0.639 ± 0.012
303.15 K, x1 = 0.414	0.67 ± 0.012
303.15 K, x1 = 0.5251	0.712 ± 0.013
303.15 K, x1 = 0.6553	0.767 ± 0.013
303.15 K, x1 = 0.765	0.815 ± 0.014
303.15 K, x1 = 0.8807	0.866 ± 0.015

BrCCBr + Cc1ccccc1
101.33 kPa
Conditions	viscosity [mPa·s]
298.15 K, x1 = 0.1229	0.6433 ± 0.0081
298.15 K, x1 = 0.2578	0.6736 ± 0.0084
298.15 K, x1 = 0.348	0.7383 ± 0.0091
298.15 K, x1 = 0.4549	0.8563 ± 0.01
298.15 K, x1 = 0.5548	0.9001 ± 0.011
298.15 K, x1 = 0.6537	1.015 ± 0.012
298.15 K, x1 = 0.746	1.105 ± 0.013
298.15 K, x1 = 0.8331	1.268 ± 0.015
298.15 K, x1 = 0.9171	1.381 ± 0.016
308.15 K, x1 = 0.1176	0.5499 ± 0.007
308.15 K, x1 = 0.2377	0.6 ± 0.0075
308.15 K, x1 = 0.3568	0.6572 ± 0.0081
308.15 K, x1 = 0.4489	0.7283 ± 0.0089
308.15 K, x1 = 0.5524	0.8275 ± 0.01
308.15 K, x1 = 0.652	0.9069 ± 0.011
308.15 K, x1 = 0.7416	0.9937 ± 0.012
308.15 K, x1 = 0.8319	1.111 ± 0.013
308.15 K, x1 = 0.9144	1.233 ± 0.014

Brc1ccccc1 + Cc1ccccc1
101 kPa
Conditions	viscosity [mPa·s]
293.15 K, x2 = 0.2	1.001 ± 0.017
293.15 K, x2 = 0.4	0.885 ± 0.015
293.15 K, x2 = 0.6	0.778 ± 0.013
293.15 K, x2 = 0.8	0.677 ± 0.012
298.15 K, x1 = 0.129	0.613 ± 0.005
298.15 K, x1 = 0.267	0.672 ± 0.006
298.15 K, x1 = 0.379	0.72 ± 0.006
298.15 K, x1 = 0.505	0.786 ± 0.007
298.15 K, x1 = 0.629	0.851 ± 0.007
298.15 K, x1 = 0.736	0.91 ± 0.008
298.15 K, x1 = 0.853	0.981 ± 0.008
298.15 K, x1 = 0.882	0.996 ± 0.009
298.15 K, x2 = 0.53	0.75 ± 0.008
298.15 K, x2 = 0.623	0.7 ± 0.007
298.15 K, x2 = 0.72	0.658 ± 0.007
298.15 K, x2 = 0.869	0.603 ± 0.006
303.15 K, x1 = 0.101	0.581 ± 0.01
303.15 K, x1 = 0.129	0.574 ± 0.005
303.15 K, x1 = 0.202	0.635 ± 0.011
303.15 K, x1 = 0.267	0.626 ± 0.006
303.15 K, x1 = 0.303	0.689 ± 0.012
303.15 K, x1 = 0.379	0.674 ± 0.006
303.15 K, x1 = 0.403	0.74 ± 0.013
303.15 K, x1 = 0.503	0.788 ± 0.013
303.15 K, x1 = 0.505	0.729 ± 0.006
303.15 K, x1 = 0.603	0.831 ± 0.014
303.15 K, x1 = 0.629	0.792 ± 0.007
303.15 K, x1 = 0.703	0.877 ± 0.015
303.15 K, x1 = 0.736	0.857 ± 0.007
303.15 K, x1 = 0.802	0.918 ± 0.015
303.15 K, x1 = 0.853	0.92 ± 0.008
303.15 K, x1 = 0.882	0.938 ± 0.008
303.15 K, x1 = 0.901	0.957 ± 0.016
313.15 K, x2 = 0.2	0.786 ± 0.014
313.15 K, x2 = 0.4	0.697 ± 0.012
313.15 K, x2 = 0.6	0.614 ± 0.011
313.15 K, x2 = 0.8	0.537 ± 0.009
